Series [1] can be described thus: Partition of components between water+sulfolane phase and methylnaphthalene phase after dehydration reaction. The class given is physicochemical. To be noted: room temperature; for [Conc]water+S: concentration in aqueous (water+sulfolane) phase; for [conc]MN: concentration in methylnaphthalene phase; for wt. %water+S: content in aqueous (water+sulfolane) phase; for wt. %MN: content in methylnaphthalene phase; for Pmol: ratio of absolute amounts polar/apolar phase, polar phase volume twice the apolar.

For series [2] the following is noted: cited from earlier work.
For series [3] the following is noted: octanol-water; water-soluble solvents, Table 3; cited from earlier work.
[4] abbreviates: water-insoluble solvents, Table 2.
Where [5] appears, read: water-insoluble boronic acids, Table 1.

These results are taken from patent US20240025871A1, “METHODS AND SYSTEMS FOR PRODUCTION OF FURFURAL” (SHELL OIL COMPANY, priority 2020, published 2024).

Several values for one entry are separate records, joined by “and”; a condition that tells them apart may be missing. Equal values may be shown once. Read-outs that look alike come from different tables or passages of the source.

For `OB(O)c1ccccc1` [phenylboronic acid], in series [1], the “[Conc]water+S” value turned out to be 125 mM, the “[conc]MN” value is recorded as 340 mM, the “wt. %MN” value worked out at 3.7 wt. % and the Pmol was 0.74. In addition, the “wt. %water+S” value in series [1] (listed as PBA) is < 1.3 wt. % and 1.3 wt. %.

For `Cc1cccc2ccccc12` [1-methylnaphtalene], in series [1], the “[Conc]water+S” value amounted to 3 mM, the “[conc]MN” value was 7,000 mM, the “wt. %MN” value is 91 wt. % and the Pmol turned out to be 0.0009. The “wt. %water+S” value in series [1] (listed as 1-MN) came to 0.04 wt. %. Moreover, in series [1] (listed as MN), the “wt. %water+S” value is on record as less than 0.1 wt. %. For the same compound, the “Water solubility g/L (20° C.)” value in series [2] (setting [4]) was 0.026 g/L.

For `CCCCCCCCB(O)O` [octylboronic acid], the “Water solubility g/L (20° C.)” value in series [2] (setting [5]) is reported as “Insoluble”. Moreover, in series [2], the “water solubility (in words)” value is listed as “water-insoluble”.

Turning to `Cc1ccccc1B(O)O` [o-tolylboronic acid], the “Water solubility g/L (20° C.)” value in series [2] (setting [5]) is on record as “Slightly”.

Regarding `CC(C)(C)c1ccc(B(O)O)cc1` [4-tert-Butylphenyl boronic acid], the “Water solubility g/L (20° C.)” value in series [2] (setting [5]) is given as “Insoluble”.

On to `COCCOCCOC` [Diglyme], for which, in series [3], the LogP is given as −0.8.

On to `CCc1ccc(O)cc1` [4Et-phenol], for which the “Water solubility g/L (20° C.)” value in series [2] (setting [4]) was 6.1 g/L.

In the case of `c1ccc2occc2c1` [Benzofuran], the “Water solubility g/L (20° C.)” value in series [2] (setting [4]) is “insoluble”.

Regarding `O=Cc1ccco1` [Furfural], in series [1], the “[Conc]water+S” value came to 103 mM, the “[conc]MN” value is reported as 144 mM, the “wt. %water+S” value is given as 0.88 wt. % and the “wt. %MN” value stood at 1.3 wt. %. In series [1], the Pmol is 1.43 and the “share of overall furfural produced contained in non-aqueous MN-rich phase” value amounted to 41%. The “wt. %water+S” value in series [1] (listed as furfural) is less than 1 wt. %.

Take `CCCCc1ccc(B(O)O)cc1` [4-butylphenyl boronic acid]: the “Water solubility g/L (20° C.)” value in series [2] (setting [5]) was “Insoluble”.

Turning to `O` [water], in series [1], the “[Conc]water+S” value is 27,600 mM, the “[conc]MN” value turned out to be 92 mM, the “wt. %water+S” value is on record as 44 wt. % and the “wt. %MN” value came to 0.15 wt. %. Further, the Pmol in series [1] is given as 601.

For the compound `CN1CCCC1=O` [nMe-pyrrolidone], the LogP in series [3] is on record as −0.4.

With `CC1CCC(=O)O1` (centres unmarked) [gamma valerolactone], the LogP in series [3] is on record as −0.27.

`O=S1(=O)CCCC1` [sulfolane]: in series [1], the “[Conc]water+S” value is 5,100 mM, the “[conc]MN” value is reported as 370 mM, the “wt. %water+S” value is reported as 54 wt. % and the “wt. %MN” value is 4 wt. %. Further, the Pmol in series [1] is listed as 13.8. In series [1] (listed as Sulfolane), the “wt. %MN” value turned out to be 4.0 wt. %.

For the compound `O=C1CCCO1` [gamma butyrolactone], in series [3], the LogP was −0.76.

In general, LogP refers to a log measure of how a compound divides between an organic and an aqueous phase.
